Entries after “also recorded” stand apart in the source; their conditions may differ.
Assays:
[1] = molecular target: T1, tryptophanase (Escherichia coli, UniProt P0A853); test: L-tryptophan degradation by tryptophanase, kinetic and inhibition analysis (indole formation, Ehrlich reagent); type: biochemical, E. coli; conditions: for effect on L-tryptophan degradation: in the absence and presence of DAP; for Ki: read-out: Inhibition const. Ki
T1 construct: purchased Sigma-Aldrich Co. (St. Louis, MO, USA)
Protocol: (§1) When tryptophanase degraded L-tryptophan, all reaction mixtures included 0.2 mM of pyridoxal 5′-phosphate and 0.23 μM of tryptophanase in 100 mM potassium phosphate buffer of pH 8.3. DAP concentrations were prepared to the required concentrations of 0, 0.6, 1.2, 1.9 or 3.1 M. L-tryptophan. The reaction mixture was prepared to a concentration of 98, 108, 128, 137, 147, 167, 196, 225, 245, 294, 343, 392, 490, 680 or 980μM for kinetic analyses. Reactions were performed at 37 °C for 30 min in a Dry Thermo Unit DTU-1B (Taitec, Tokyo, Japan). Although D-tryptophan in addition to L-tryptophan was also degraded into indole in the presence of DAP, an indole production amount from D-tryptophan was neglected at this reaction temperature and time because the catalytic efficiency for D-tryptophan was 0.3% of that for L-tryptophan. On the other hand, the reaction condition of D-tryptophan degradation differed in several ways from that of L-tryptophan degradation. Each concentration of pyridoxal 5′-phosphate and tryptophanase was 1.2 mM and 0.92μM, and additionally reaction temperature and time was 55 °C and 2 h, respectively. All the other reaction conditions were the same as in the L-tryptophan degradation.
(§2) The total volume of the reaction mixture was 2 mL per tube. The reaction was stopped by adding 2 mL of n-butanol, which was vigorously mixed and then immediately centrifuged at approximately 1,000 G for 10 min. After centrifugation, the reaction mixture was separated into two layers of butanol and aqueous solutions in which indole was equally distributed. The supernatant butanol layer was extracted to be mixed with an equal volume of Ehrlich reagent, then colored red at 60 °C for 30 min in Dry Thermo Unit. […] Tryptophanase activity was assayed in triplicate at the same substrate concentration and then averaged. Initial velocity was computed based on the averaged value.
(§3) Initial velocities were defined by indole that formed within 1 minute after 1 mg of tryptophanase was added. Then the reciprocal of (initial velocity/[E] (enzyme concentration)) (ordinate) versus the reciprocal of substrate concentration (abscissa) was drawn for each concentration of L- or D-tryptophan. These double-reciprocal plots were drawn based on the least squares method to calculate kinetic parameters. Kcatwas determined from the reciprocal of the intercepts of these double-reciprocal plots, and the Michaelis constant Km from substrate concentration at 1/v = 0 in the absence of inhibitor. In noncompetitive inhibition, two inhibition constants of Ki (=[E][I]/[EI], E: enzyme; I: inhibitor; EI: enzyme-inhibitor complex) and Ki' (=[ES][I]/[ESI], ES: enzyme-substrate complex; ESI: enzyme-substrate-inhibitor complex) were determined from the slopes and from the intercepts, respectively. In the mixed type inhibition, Ki and Ki' were determined from x and y coordinates of the fixed point in the second quadrant.

[2] = molecular target: T1, tryptophanase; test: D-tryptophan degradation by tryptophanase in the presence of 3.1 M DAP, kinetic and inhibition analysis; type: biochemical, E. coli; conditions: for effect on D-tryptophan degradation: in the presence of 3.1 M DAP
Protocol: as §1, §2, §3

[3] = inhibitor of D-tryptophan degradation, 3.1 M DAP
[4] = inhibitor of L-tryptophan degradation, DAP 0 M
[5] = inhibitor of L-tryptophan degradation, DAP 0.6 M
[6] = inhibitor of L-tryptophan degradation, DAP 1.2 M
[7] = inhibitor of L-tryptophan degradation, DAP 1.9 M
[8] = substrate L-Trp, DAP 0 M (Table 2)
[9] = substrate L-Trp, DAP 0.6 M (Table 2)
[10] = substrate L-Trp, DAP 1.2 M (Table 2)

T1 sequence (P0A853 whole entry): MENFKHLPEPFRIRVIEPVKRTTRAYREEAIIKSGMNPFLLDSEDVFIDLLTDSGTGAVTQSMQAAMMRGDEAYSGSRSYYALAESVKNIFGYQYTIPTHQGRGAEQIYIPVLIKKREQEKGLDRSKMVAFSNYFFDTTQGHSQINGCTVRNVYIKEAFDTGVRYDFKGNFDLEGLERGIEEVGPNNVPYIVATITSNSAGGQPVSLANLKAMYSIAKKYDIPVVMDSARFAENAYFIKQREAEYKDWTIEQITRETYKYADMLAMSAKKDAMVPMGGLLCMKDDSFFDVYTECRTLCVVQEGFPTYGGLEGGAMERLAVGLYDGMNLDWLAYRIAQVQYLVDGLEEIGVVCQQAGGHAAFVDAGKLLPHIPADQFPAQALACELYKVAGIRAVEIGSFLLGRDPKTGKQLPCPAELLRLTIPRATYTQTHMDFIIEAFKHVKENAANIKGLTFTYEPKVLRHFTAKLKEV

N[C@H](Cc1c[nH]cn1)C(=O)O [D-histidine]
effect on L-tryptophan degradation [1]: no effect; also recorded: did not interact
effect on D-tryptophan degradation [2]: inhibited
Inhibition type [2, 3]: competitively inhibited
Ki [2, 3]: 400 µM

N[C@H](Cc1ccccc1)C(=O)O [D-phenylalanine]
effect on L-tryptophan degradation [1]: no effect
effect on D-tryptophan degradation [2]: little

N[C@H](Cc1c[nH]c2ccccc12)C(=O)O [D-tryptophan]
catalytic efficiency, percent of that for L-tryptophan ([1]; in the presence of DAP, 37 °C, 30 min): 0.3%
Inhibition type [1, 4]: competitive inhibitor
Ki [1, 4]: 21 mM
Inhibition type [1, 5]: mixed
Ki [1, 5]: 25 mM
Inhibition type [1, 6]: mixed
Ki [1, 6]: 30 mM
Inhibition type [1, 7]: mixed
Ki [1, 7]: 38 mM
Inhibition type ([1]; inhibitor of L-tryptophan degradation, DAP 3.1 M): noncompetitive inhibition type
Ki/Ki' ([1]; with increasing DAP concentrations (0 to 3.1 M), L-tryptophan degradation): 0 to 1.0

N[C@H](Cc1ccc(O)cc1)C(=O)O [D-tyrosine]
effect on L-tryptophan degradation [1]: no effect
effect on D-tryptophan degradation [2]: no effect

N.N.O=P(O)(O)O [DAP, diammoniumhydrogen phosphate]
Inhibition type ([1]; DAP as inhibitor of L-tryptophan degradation): noncompetitive inhibitor

N[C@@H](Cc1c[nH]c2ccccc12)C(=O)O [L-tryptophan]
reduced values of kcat compared to the values in the absence of DAP ([1]; L-tryptophan degradation in the presence of DAP): 18–45%

O=C(O)C(=O)Cc1c[nH]c2ccccc12 [indole pyruvate]
Ki, fold stronger than for pyruvate ([1]; L-tryptophan degradation): 15 fold
Inhibition type [1, 8]: competitive
Ki [1, 8]: 0.2 mM
Inhibition const. Ki' [1, 9]: 0.3 mM
Inhibition type [1, 9]: mixed
Ki [1, 9]: 0.2 mM
Inhibition const. Ki' [1, 10]: 0.2 mM
Inhibition type [1, 10]: noncompetitive
Ki [1, 10]: 0.2 mM

CC(=O)C(=O)O [potassium pyruvate]
Inhibition type [1, 8]: competitively inhibited; also recorded: competitive
Ki [1, 8]: 3 mM
